Source: US20260262641A1 (priority 2023, published 2026)

Assays:
[1] = tested on: redlegged earth mite (H. destructor; RLEM); test: whole plant or invertebrate
Description: On the 14th of May 2022, H. destructor were collected from capeweed (Arctotheca calendula) in South Morang, Victoria (−37.625, 145.110), a site with no known history of insecticide application. Mites were collected via suction using a Stihl SH55 blower vacuum, placed in plastic containers with paper towel and vegetation, and transported back to the laboratory, where they were stored at 4° C. until testing.
Serial dilutions were prepared for each insecticide (Table 1), with the addition of a non-ionic surfactant (Tween 20) at 0.01% to aid the spread of the insecticide and ensure even coating. […] Nine concentrations of pyridaben ranging from the proposed field rate of 1480 mL diluted in 100 L of water (1998 mg a.i./L) to 1×10^−5 were serially diluted and tested along with a water control. Eight concentrations of omethoate, ranging from 10 times the field rate of 100 mL diluted in 100 L of water (290 mg a.i./L) to 1×10^−5, were tested along with a water control. Seven concentrations of bifenthrin, ranging from 10 times the field rate of 40 mL diluted in 100 L of water (100 mg a.i./L) to 1×10^−5, were tested along with a water control. For each insecticide concentration tested, approximately 10 mL of solution was poured into a 15 mL plastic vial and swirled to ensure a complete coating, with excess liquid removed. Six vials were coated per concentration and were left to dry overnight. Control vials were treated in the same way, except water (with the addition of 0.01% Tween) was used.
Approximately eight individual H. destructor were then placed into each vial along with 2-3 leaves of common vetch (Vicia sativa), which provided food and humidity. Vials were then sealed with a screw lid and placed in a controlled temperature cabinet at 18° C. After 24-hours exposure, mites were scored as alive (moving freely), incapacitated (inhibited movement), or dead (no movement over a 5 second period).
Dose-response curves were generated by plotting percentage mortality against log concentration. […] Logistic regression is well suited for the analysis of binary response data (e.g., dead/alive). All analyses were conducted using R version 3.3.1 (R Development Core Team 2022).

[2] = tested on: couch mite (Aceria cynodoniensis); test: Field trial in hybrid couch turfgrass, control of couch mite (Example 7); type: in vivo
Description: A field trial was conducted in hybrid couch turfgrass, to evaluate fenpyroximate for control of couch mite (Aceria cynodoniensis). The trial was located at Oxley Golf Club, Oxley Queensland (−27.57077, 152.99762). […] All treatments were applied using a hand boom fitted with XR11004 nozzles and in a spray volume of 430 L/ha.
The severity of couch mite damage to the terminal growth point (known as witches' broom) was assessed pre-spraying, then at 42 and 56 days after the second application. The density of couch mite was assessed pre-spraying and at 28 days after the second application. Turf quality was assessed on a 0 to 9 rating scale (0=dead; 9=best quality/color) prior to the first application and 14 days after the second application.
(§1) All data was statistically analyzed using analysis of variance and Fisher's protected least significant different test (Fishers LSD). The level of significance for all tests was P<0.05.

[3] = tested on: ground pearl (Margarodes spp); test: Field trial in kikuyu turf, control of ground pearl, Robina (Example 6); type: in vivo; conditions: 56 DAA3 (head); 0=dead; 10=best quality/color; product rate mL/ha: Meridian 1200, Kohinor 350 SC 1500, Fenpyroximate 50 SC 4000; each with Stamina B 20000
[4] = tested on: redlegged earth mite (H. destructor; RLEM); test: Field trial in canola, pre- or post-emergent control of RLEM (Example 5); type: in vivo, Halotydeus destructor
Description: A field trial was conducted in canola cv. Garrison, to evaluate fenpyroximate for control of redlegged earth mite (H. destructor; RLEM) as a pre- or post-emergent application. The trial was located at Beverley, Western Australia (−32.2248085, 117.0268493). The canola was sown on 13th June 2023. […] All treatments were applied using a hand boom fitted with flat fan nozzles in a spray volume of 100 L/ha.
The density of RLEM was assessed 33 days after the second application timing by counting the number of mites per plant.
as §1

[5] = Halotydeus destructor, 24 h, read-out: % RLEM mortality

Cc1nn(C)c(Oc2ccccc2)c1C=NOCc1ccc(C(=O)OC(C)(C)C)cc1 [Fenpyroximate]
concentrations at which mite mortality was observed ([1]; 24 hours exposure): greater than 50 mg a.i./L
mortality at 0.01 µg/mL [1, 5]: 0%
mortality at 0.1 µg/mL [1, 5]: 0%
mortality at 1 µg/mL [1, 5]: 0%
mortality at 10 µg/mL [1, 5]: 0%
mortality at 30 µg/mL [1, 5]: 0%
mortality at 50 µg/mL [1, 5]: 6%
mortality at 100 µg/mL [1, 5]: 30.5%
mortality at 300 µg/mL [1, 5]: 93.8%
mortality at 500 µg/mL [1, 5]: 100%
mortality at 1000 µg/mL [1, 5]: 98.7%
control of RLEM ([1]; concentration of 300 g a.i./L (as printed in text)): 93.8%
control of RLEM ([1]; concentration of 500 g a.i./L (as printed in text)): 100%
efficacy against RLEM (in words) ([1]; laboratory bioassay, 24 hours exposure): highly efficacious
Couch mites/3 terminals, 28 DAA2 ([2]; 28 DAA2, product rate mL/ha: Abazine Miticide 1350, Fenpyroximate 50 SC 2000): 45.8 mites/3 terminals
Turf quality (0-9), 14 DAA2 ([2]; 14 days after second application, 0=dead, 9=best quality/color, product rate mL/ha: Abazine Miticide 1350, Fenpyroximate 50 SC 2000): 5.1
% Severity mite damage, 42 DAA2 ([2]; 42 days after second application, product rate mL/ha: Abazine Miticide 1350, Fenpyroximate 50 SC 2000 (100 g ai/ha)): 7.0 a %
% Severity mite damage, 56 DAA2 ([2]; 56 days after second application, product rate mL/ha: Abazine Miticide 1350, Fenpyroximate 50 SC 2000 (100 g ai/ha)): 6.5 a %
Couch mites/3 terminals, Pre-spray ([2]; Pre-spray (baseline)): 130.5 mites/3 terminals
Turf quality (0-9), Pre-spray ([2]; Pre-spray (baseline), 0=dead, 9=best quality/color): 4.5
% Severity mite damage, Pre-spray ([2]; Pre-spray (baseline), witches' broom): 40.0%
density of couch mite (in words) ([2]; versus untreated, P<0.05): significantly both reduced
turf quality (in words) ([2]; versus untreated, P<0.05): improved
Turf vigor (0-10), 56 DAA3 [3]: 6.2 a
% Control (33 DAA2) ([4]; application timing A (post-sow pre-emergent), product rate 1000 mL/ha): 67%
% Control (33 DAA2) ([4]; application timing A (post-sow pre-emergent), product rate 2000 mL/ha): 61%
% Control (33 DAA2) ([4]; application timing B (early post-emergent, 1 to 2 leaf canola), product rate 1000 mL/ha): 63%
% Control (33 DAA2) ([4]; application timing B (early post-emergent, 1 to 2 leaf canola), product rate 2000 mL/ha): 68%
